Data: patent US8685443B2, “Sequestering subunit and related compositions and methods” (Alpharma Pharmaceuticals LLC, priority 2002, dated 2014)
Counter-ions that a name gives are not always drawn.

Key:
[1] = in comparison to a 15 mg dose of hydrocodone
opioid receptors = conditions: after oral administration; cited from earlier work
[2] = hydrochloride salt; cited from earlier work
mu over delta sites = conditions: cited from earlier work

For `COc1ccc2c3c1O[C@H]1[C@@H](O)C=C[C@H]4[C@@H](C2)N(C)CC[C@@]341` [Codeine], the “Calculated Dose (equianalgesic dose)” value [1] was 90.0 mg.

In the case of `COc1ccc2c3c1OC1C(=O)CC[C@H]4[C@@H](C2)N(C)CC[C@]314` (stereo partly drawn) [Hydrocodone, 4,5-epoxy-3-methoxy-17-methylmorphinan-6-one], the “Calculated Dose (equianalgesic dose)” value [1] was 15.0 mg.

For `CN1CC[C@]23CCCC[C@H]2[C@H]1Cc1ccc(O)cc13` [Levorphanol], the “Calculated Dose (equianalgesic dose)” value [1] was 1.8 mg.

In the case of `CCC(=O)C(CC(C)N(C)C)(c1ccccc1)c1ccccc1` (stereo not drawn) [Methadone], the “Calculated Dose (equianalgesic dose)” value [1] was 9.0 mg.

For `COc1ccc2c3c1OC1C(=O)CC[C@@]4(O)[C@@H](C2)N(C)CC[C@]314` (stereo partly drawn) [Oxycodone, 4,5-epoxy-14-hydroxy-3-methoxy-17-methylmorphinan-6-one], the “Calculated Dose (equianalgesic dose)” value [1] was 13.5 mg.

In the case of `C[C@H]1[C@H]2Cc3ccc(O)cc3[C@]1(C)CCN2CC1CC1` [cyclazocine], the duration of effect (opioid receptors) is given as ~24 h.

In the case of `O=C1CC[C@@]2(O)[C@H]3Cc4ccc(O)c5c4[C@@]2(CCN3CC2CC2)[C@H]1O5` [hydrochloride salt of naltrexone, naltrexone], the solubility in water [2] is given as “about 100 mg/cc”.

In the case of `O=C1CC[C@@]2(O)[C@H]3Cc4ccc(O)c5c4[C@@]2(CCN3CC2CC2)[C@H]1O5` [naltrexone], the “blocking action, mu over delta sites” value (mu over delta sites) is listed as “strong preferential blocking action against mu over delta sites”.

With Meperidine the “Calculated Dose (equianalgesic dose)” value [1] was 135.0 mg.
